target: human recombinant KAT-II (Homo sapiens (Human), UniProt Q8N5Z0); experiment: KAT-II inhibitory test; type: biochemical; details: 3.0 μmol/L kynurenine, 37° C. for 1 hr, kynurenic acid by HPLC
Experimental: The compounds described in the above-mentioned Examples were used for the KAT-II inhibitory test.
Human recombinant KAT-II was prepared as follows.
His tag and maltose binding protein tag were added to the N-terminal of a gene encoding human KAT-II (Genbank accession number: AF481738.1), and the obtained gene was incorporated into pET32 (Merck Nihon Millipore), which is an Escherichia coli expression vector. Human recombinant KAT-II produced by BL21(DE3) Escherichia coli (Merck Nihon Millipore, 69450) transformed using the plasmid was purified using an amylose resin column (New England Biolabs, #800-21 L).
The inhibitory action of the test compound on human recombinant KAT-II was determined by the following method.
To a reaction mixture (45 μL) containing 3.0 μmol/L kynurenine, 10 μmol/L pyridoxal phosphate, 2.0 ng/μL human recombinant KAT-II, and 150 mmol/L tris(hydroxymethyl)aminomethane-acetate buffer (pH 8.0) was added a 10% dimethyl sulfoxide solution (5 μL) of each test compound prepared, and the mixture was reacted at 37° C. for 1 hr. After the reaction, 50% trichloroacetic acid (5 μL) was added to terminate the reaction.
The resultant kynurenic acid was quantified as follows by high performance liquid chromatography. An enzyme reaction mixture was separated by an octadecylsilane reversed-phase column (SC-50DS, Eicom Corporation; mobile phase: 250 mmol/L zinc acetate, 50 mmol/L sodium acetate, and 5.0% acetonitrile (pH 6.2)) incubated at 30° C., and kynurenic acid was quantified using a fluorescence detector (RF-20Axs, Shimadzu Corporation) at excitation wavelength 354 nm, detection wavelength 460 nm. The analytical curve was drawn every time by an external standard method. Each test compound was tested by dual measurement at each concentration. The kynurenic acid level in the presence of a test compound at each concentration was converted into % relative to kynurenic acid resulting from a reaction with an enzyme alone as 100%, and the obtained values were fitted to S-curve to determine IC50.

human recombinant KAT-II, sequence (Q8N5Z0 30-425): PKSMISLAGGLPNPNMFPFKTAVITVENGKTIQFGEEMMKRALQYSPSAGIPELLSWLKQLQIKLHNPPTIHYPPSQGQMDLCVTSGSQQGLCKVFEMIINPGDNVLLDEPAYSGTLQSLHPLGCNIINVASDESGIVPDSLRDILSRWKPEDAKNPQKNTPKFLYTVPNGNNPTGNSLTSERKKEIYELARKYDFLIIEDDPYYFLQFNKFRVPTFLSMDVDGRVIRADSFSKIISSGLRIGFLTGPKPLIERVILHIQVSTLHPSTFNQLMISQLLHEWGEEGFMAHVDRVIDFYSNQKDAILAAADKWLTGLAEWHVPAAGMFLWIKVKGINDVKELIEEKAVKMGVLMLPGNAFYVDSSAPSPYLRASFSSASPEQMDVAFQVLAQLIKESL

Structure (SMILES) | IC50 [nM]
COCc1cnc2nc(N3CCC[C@@H]3C(=O)NCc3ccccc3)sc2c1 [Example 159] | 640
CCc1nc(-n2nc(C)cc2C)nc2nc(N3CCC[C@@H]3C(=O)NCc3ccccc3)sc12 [Example 103, (R)—N-benzyl-1-[5-(3,5-dimethyl-1H-pyrazol-1-yl)-7-ethyl[1,3]thiazolo[4,5-d]pyrimidin-2-yl]pyrrolidine-2-carboxamide] | 200
CCc1nc(-n2nccn2)nc2nc(N3CCC[C@@H]3C(=O)NCc3ccccc3)sc12 [Example 101, (R)—N-benzyl-1-[7-ethyl-5-(2H-1,2,3-triazol-2-yl)[1,3]thiazolo[4,5-d]pyrimidin-2-yl]pyrrolidine-2-carboxamide] | 150
CCOc1cnc2nc(N3CCC[C@@H]3C(=O)NCc3ccccc3)sc2n1 [Example 190] | 490
CCOc1nc(C2CCOCC2)nc2nc(N3CCC[C@@H]3C(=O)NCc3ccccc3)sc12 [Example 75] | 95
O=C(NCc1ccccc1)[C@H]1CCCN1c1nc2ncc(C3CC3)nc2s1 [Example 192, (R)—N-benzyl-1-(6-cyclopropyl[1,3]thiazolo[4,5-b]pyrazin-2-yl)pyrrolidine-2-carboxamide] | 33
CCc1nc(C2CC2)nc2nc(N3CCC[C@@H]3C(=O)NCc3ccccc3)sc12 [Example 41] | 170
Cc1cc2sc(N3CCC[C@@H]3C(=O)NC3(c4ccccc4)CC3)nc2nc1C [Example 120] | 530
Cc1nc(-c2ccc(F)cc2)nc2nc(N3CCC[C@@H]3C(=O)NCc3ccccc3)sc12 [Example 78] | 550
O=C(NCc1ccccc1)[C@H]1CCCN1c1nc2ncnc(C3CC3)c2s1 [Example 23, (R)—N-benzyl-1-(7-cyclopropyl[1,3]thiazolo[4,5-d]pyrimidin-2-yl)pyrrolidine-2-carboxamide] | 26
COC1(c2cnc3nc(N4CCC[C@@H]4C(=O)NCc4ccccc4)sc3c2)CCC1 [Example 127] | 280
CC(C)c1cnc2nc(N3CCC[C@@H]3C(=O)NCc3ccccc3)sc2c1 [Example 111] | 210
COCc1ncnc2nc(N3CCC[C@@H]3C(=O)N[C@H](C)c3ccccc3)sc12 [Example 34] | 640
O=C(NCc1ccccc1)[C@H]1CCCN1c1nc2ncnc(-c3ccccn3)c2s1 [Example 35] | 290
O=C(NCc1ccccc1)[C@H]1CCCN1c1nc2ncnc(OC3CCOCC3)c2s1 [Example 90] | 130
COCc1nc(C(F)(F)F)c2sc(N3CCC[C@@H]3C(=O)NCc3ccccc3)nc2n1 [Example 56] | 230
Cc1nc2nc(N3CCC[C@@H]3C(=O)NCc3ccccc3)sc2c(=O)n1C [Example 109, (R)—N-benzyl-1-(5,6-dimethyl-7-oxo-6,7-dihydro[1,3]thiazolo[4,5-d]pyrimidin-2-yl)pyrrolidine-2-carboxamide] | 840
CCc1ncnc2nc(N3CCC[C@@H]3C(=O)NCc3ccccc3)sc12 [Example 24] | 200
CN(C)c1cnc2nc(N3CCC[C@@H]3C(=O)NCc3ccccc3)sc2n1 [Example 191] | 210
Cc1nc(C(C)(C)c2cnc3nc(N4CCC[C@@H]4C(=O)NCc4ccccc4)sc3c2)no1 [Example 171, (R)—N-benzyl-1-{6-[2-(5-methyl-1,2,4-oxadiazol-3-yl)propan-2-yl][1,3]thiazolo[4,5-b]pyridin-2-yl}pyrrolidine-2-carboxamide] | 390
Cc1nc(-c2cnc3nc(N4CCC[C@@H]4C(=O)NCc4ccccc4)sc3c2)no1 [Example 183, (R)—N-benzyl-1-[6-(5-methyl-1,2,4-oxadiazol-3-yl)[1,3]thiazolo[4,5-b]pyridin-2-yl]pyrrolidine-2-carboxamide] | 640
Cc1cnc2nc([C@H]3CCCN3C(=O)NC3(c4ccccc4)CC3)sc2c1 [Example 203, (R)-2-(6-methyl[1,3]thiazolo[4,5-b]pyridin-2-yl)-N-(1-phenylcyclopropyl)-pyrrolidine-1-carboxamide] | 7400
O=C(NCc1ccccc1)[C@H]1CCCN1c1nc2ncc(-c3ccccc3)nc2s1 [Example 189] | 210

— patent US10793582B2, “Bicyclic heterocyclic compound” (MITSUBISHI TANABE PHARMA CORPORATION, priority 2015, dated 2020)
